Measurements as given in US20250032575A1, “USE OF A MURAMYL PEPTIDE IN THE TREATMENT OF SKELETAL GROWTH RETARDATION” (UNIVERSITE CLAUDE BERNARD LYON 1, priority 2021, published 2025).

Tests used:
Type in all cases: in vivo, mice
[1] = system: chronically undernourished mouse model; test: body length (nose-anus) growth in chronically undernourished mouse model; conditions: for growth rate / relative growth (% length gain, day 21 = 100%) / total height: male mice on low-protein, low-fat diet, day 21 to 56, oral, 5 times a week, vs placebo; for skeletal growth (linear or longitudinal): summary of examples 1 and 2, oral administration, juvenile mice on protein-deficient diet mimicking chronic undernutrition
Procedure: (§1) Conventional C57B1/6j laboratory mice have been bred in the Gnotobiology Laboratory for more than 10 generations. Mice have been maintained in IVC cages (Tecniplast, Italy), exposed to 12:12 h light-dark cycles, supplied with tap water and fed ad libitum with sterile diet V1124-300 (Ssniff Spezialdiaten GmbH) (irradiated −25 kGy, Bioster, Czech Republic). The mice have been mated and after delivery, the litter size was reduced to 6 pups per mother. On day 21, male mice have been weaned on the experimental low-protein, low-fat diet (3.5 kcal/gram, protein: 4.1 wt %, carbohydrate: 78 wt %, fat: 2 wt %) and regularly monitored until 56 days after birth (adult age in mice). Mice weaned on the low-protein, low-fat diet have been treated 5 times a week with placebo, composition A containing MDP or composition B containing Murabutide. At the end of the experiment, food and bedding were removed at 8 am and the mice have been sacrificed after 5 hours of fasting by isoflurane inhalation and cervical dislocation. All animals have been sacrificed within one hour between 1 and 2 p.m.
(§2) The daily treatment dose was 30 μL placebo or for MDP 25 μg in 30 μL placebo and for murabutide 28 μg in 30 μL placebo. Each of the compositions has been administered by pipette to the mouse's tongue. The mouse has been maintained until the composition had been swallowed completely.
(§3) To measure body length, the mice have briefly been anaesthetised with isoflurane (Piramal Healthcare, UK). The anaesthetised mouse has been held by the tail and the nose-anus length has been measured using a ruler. Relative length has been calculated as % length gain, where body length at day 21 (weaning) has been set to 100%. The length growth rate has been calculated by dividing the absolute length gain from day 21 to day 56 by the number of days (i.e. 35). Femur and tibia bones have been dissected at sacrifice, fixed in 4% paraformaldehyde—PBS overnight at 4° C., washed with PBS and preserved in 70% ethanol. Bone length has been measured using a digital caliper (Festa).
Conventional C57B1/6j laboratory mice have been bred in the Gnotobiology Laboratory for more than 10 generations. Mice have been maintained in IVC cages (Tecniplast, Italy), exposed to 12:12 h light-dark cycles, supplied with tap water and fed ad libitum with sterile diet V1124-300 (Ssniff Spezialdiäten GmbH) (irradiated −25 kGy, Bioster, Czech Republic). The mice have been mated and after delivery the litter size was reduced to 6 pups per mother. On day 21, male mice have been weaned on the experimental low-protein, low-fat diet (3.5 kcal/gram, protein: 4.1 wt %, carbohydrate: 78 wt %, fat: 2 wt %) and monitored regularly for up to 56 days after birth. Mice weaned on the low-protein, low-fat diet have been treated 5 times a week with either the placebo composition or the composition comprising mifamurtide as prepared in point 1.1 above. At the end of the experiment, the food and bedding were removed at 8 a.m. and the mice have been sacrificed after 5 hours of fasting by isoflurane inhalation and cervical dislocation. All animals have been sacrificed within one hour between 1 and 2 p.m.
Each of the compositions has been administered by pipette to the tongue of the mouse. The mouse has been held until the composition had been swallowed completely.
The tests were carried out on male mice with each of the above compositions P, A, AB and B, according to the protocol indicated in example 1, point 1.1 above (56-day period).
The daily treatment dose was 30 μL of composition P (Placebo) or 25 μg MDP alone in 30 μL of placebo (composition A), or 25 μg MDP and 2.10^8 CFU of Lactiplantibacillus plantarum strain WJL bacteria in 30 μL of placebo (composition AB) or 2.10^8 CFU of Lactiplantibacillus plantarum strain WJL bacteria in 30 μL of placebo (composition B). […]

[2] = system: chronically undernourished mouse model; test: femur and tibia bone length in chronically undernourished mouse model; conditions: at sacrifice day 56, oral, vs placebo
Procedure: as §1, §2, §3
Conventional C57B1/6j laboratory mice have been bred in the Gnotobiology Laboratory for more than 10 generations. Mice have been maintained in IVC cages (Tecniplast, Italy), exposed to 12:12 h light-dark cycles, supplied with tap water and fed ad libitum with sterile diet V1124-300 (Ssniff Spezialdiäten GmbH) (irradiated −25 kGy, Bioster, Czech Republic). The mice have been mated and after delivery the litter size was reduced to 6 pups per mother. On day 21, male mice have been weaned on the experimental low-protein, low-fat diet (3.5 kcal/gram, protein: 4.1 wt %, carbohydrate: 78 wt %, fat: 2 wt %) and monitored regularly for up to 56 days after birth. […]

[3] = system: IGF-1; test: circulating IGF-1 level in serum, Mouse/Rat IGF-1 Quantikine ELISA; conditions: serum at day 56, oral, vs placebo
Procedure: Conventional C57B1/6j laboratory mice have been bred in the Gnotobiology Laboratory for more than 10 generations. Mice have been maintained in IVC cages (Tecniplast, Italy), exposed to 12:12 h light-dark cycles, supplied with tap water and fed ad libitum with sterile diet V1124-300 (Ssniff Spezialdiaten GmbH) (irradiated −25 kGy, Bioster, Czech Republic). The mice have been mated and after delivery, the litter size was reduced to 6 pups per mother. On day 21, male mice have been weaned on the experimental low-protein, low-fat diet (3.5 kcal/gram, protein: 4.1 wt %, carbohydrate: 78 wt %, fat: 2 wt %) and regularly monitored until 56 days after birth (adult age in mice). […]
At the end of the experiment, the blood has been collected and left to coagulate at room temperature for 2 hours. […] IGF-1 levels have been measured using the Mouse/Rat IGF-1 Quantikine ELISA kit (R&D systems) according to the manufacturer's instructions. Data have been analysed using the following statistical test: One way ANOVA with Tukey's multiple comparisons test.
Conventional C57B1/6j laboratory mice have been bred in the Gnotobiology Laboratory for more than 10 generations. […] On day 21, male mice have been weaned on the experimental low-protein, low-fat diet (3.5 kcal/gram, protein: 4.1 wt %, carbohydrate: 78 wt %, fat: 2 wt %) and monitored regularly for up to 56 days after birth. […]

[4] = Example 2, Mifamurtide 62.5 μg/day in 30 μL
[5] = Example 1, MDP 25 μg or murabutide 28 μg in 30 μL
[6] = Example 1, 5 times a week, MDP 25 μg or murabutide 28 μg in 30 μL

Row | Molecule | growth rate [1, 4] | relative growth (% length gain, day 21 = 100%) [1, 4] | total height [1, 4] | skeletal growth (linear or longitudinal) [1] | size of the femur [2, 4] | size of the tibia [2, 4] | circulating IGF1 level [3, 4] | growth rate [1, 5] | relative growth (% length gain, day 21 = 100%) [1, 5] | total height [1, 5] | femur size [2, 6] | length of the tibia [2, 6] | circulating IGF1 level [3, 6]
1 | muramyl tripeptide phosphatidyl ethanolamine [Mifamurtide] | significantly increased | significantly increased | significantly increased | positive effect | significantly increased | significantly increased | significantly increased |  |  |  |  |  | 
2 | CCCCOC(=O)[C@@H](CCC(N)=O)NC(=O)[C@H](C)NC(=O)[C@@H](C)O[C@H]1[C@H](O)[C@@H](CO)OC(O)[C@@H]1NC(C)=O (some centres unmarked) [murabutide, muramyl dipeptide butyl ester] |  |  |  | positive effect |  |  |  | significantly increased | significantly increased | significantly increased | positive trend in murabutide treatment that did not reach statistical significance | positive trend of increased growth | significantly increased
